Data taken from patent US10098878B2, “HIF-2α inhibitors for treating iron overload disorders” (The Board of Regents of the University of Texas System, priority 2014, dated 2018).
Where two headings read alike, the source gives them in different places.

Experiments:
[1] = system: 786-0 cells; experiment: VEGF ELISA Assay; format: cell-based; conditions: Homo sapiens, 786-0, read-out: VEGF ELISA EC50
Procedure: Each concentration had duplicated wells. About 20 hours later, medium was removed by suction and each well was supplied with 180 μL of growth medium. About 20 μl freshly-made 10× compound stocks were added to each well. […] The EC50 was calculated by GraphPad Prism using the dose-response-inhibition (four parameter) equation. The cell seeded plate was then subjected to CellTiter-Glo luminescence cell viability assay (Promega) by adding 50 μL of Celltiter Glo reagent into each well and shaking the plate for 8 minutes at 550 rpm (Thermomixer R, Eppendorf) then read luminescence signal in plate reader (3 second delay, 0.5 second/well integration time, Synergy 2 multi Detection Microplate reader) immediately.

[2] = system: 786-O-Hif-Luc cells; experiment: Luciferase Assay; format: cell-based; conditions: 786-O-Hif-Luc cells, about 24 hours, read-out: Luciferase EC50
Procedure: A pool of infected cells were then selected against 2 μg/mL of puromycin (P8833, Sigma) for 10 days followed by limited dilution to select single clones.
Each concentration was tested in triplicate. After about 24 hours, luciferase activity was determined using ONE-Glo Luciferase Assay Reagent (E6110, Promega) following the manufacturer's recommended procedure. EC50 were calculated by using Dotmatics software.

[3] = target: T1, HIF-2α HIS TAG-PASB Domain (Homo sapiens, UniProt Q99814); experiment: HIF-2α Scintillation Proximity Assay (SPA); format: binding; conditions: 100 nM HIF-2α HIS TAG-PASB Domain
T1 construct: 100 nM HIF-2α HIS TAG-PASB Domain
Procedure, shortened: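 IC50 values rest on percent inhibition, where the sample signal is scaled between high and low controls. Wells contain about 100 μL: compound dispensed as 2 μL of DMSO solution, 88 μL protein-probe mix and 10 μL of beads.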

[4] = 150 nM Compound 211 probe, read-out: SPA IC50

T1 sequence (Q99814 240-350 limits assumed): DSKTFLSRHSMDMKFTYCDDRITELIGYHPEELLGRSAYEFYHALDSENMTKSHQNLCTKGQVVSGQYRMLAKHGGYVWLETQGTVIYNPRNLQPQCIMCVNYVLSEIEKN

SMILES	EC50 [1] [nM]	EC50 ([2]; 24 h) [nM]	IC50 [3, 4] [nM]	EC50 [2] [nM]	IC50 ([3]; SPA IC50, 150 nM Compound 211 probe) [nM]
O=S(=O)(c1ccc(Oc2cc(F)cc(Cl)c2)c2c1[C@H](O)CC2)C(F)F [Compound 2, (R)-4-(3-chloro-5-fluorophenoxy)-7-((difluoromethyl)sulfonyl)-2,3-dihydro-1H-inden-1-ol]	245	–	–	–	–
N#Cc1ccc(Oc2cc(F)cc(F)c2)c2c1[C@H](O)C(F)(F)C2 [Compound 4, (S)-7-(3,5-Difluorophenoxy)-2,2-difluoro-3-hydroxy-2,3-dihydro-1H-indene-4-carbonitrile]	217	–	–	–	–
N#CN=S1(=O)c2ccc(Oc3cc(F)cc(F)c3)c(C(F)F)c2C(O)C1(F)F (centres unmarked) [Compound 161, N-(4-(Difluoromethyl)-5-(3,5-difluorophenoxy)-2,2-difluoro-3-hydroxy-1-oxido-2,3-dihydro-1λ^4-benzo[b]thiophen-1-ylidene)cyanamide]	–	1500	20	–	–
O=S1(=O)c2ccc(OC3CCOCC3)c(C(F)F)c2C(O)C1(F)F (centres unmarked) [Compound 164, 4-(Difluoromethyl)-2,2-difluoro-3-hydroxy-5-((tetrahydro-2H-pyran-4-yl)oxy)-2,3-dihydrobenzo[b]thiophene 1,1-dioxide]	–	1540	1900	–	–
N[C@@H]1c2c(ccc(Oc3cc(F)cc(F)c3)c2C(F)F)S(=O)(=O)C1(F)F [Compound 165, (R)-3-Amino-4-(difluoromethyl)-5-(3,5-difluorophenoxy)-2,2-difluoro-2,3-dihydrobenzo[b]thiophene 1,1-dioxide]	–	57	33	–	–
O=S1(=O)c2ccc(Oc3cc(F)cc(Cl)c3)c(Br)c2[C@H](O)C1(F)F [Compound 169, (3S)-4-Bromo-5-(3-chloro-5-fluoro-phenoxy)-2,2-difluoro-1,1-dioxo-3H-benzothiophen-3-ol]	–	–	–	172	60
C#Cc1c(Oc2cc(F)cc(C#N)c2)ccc2c1C(O)C(F)(F)S2(=O)=O (centres unmarked) [Compound 173, 3-((4-Ethynyl-2,2-difluoro-3-hydroxy-1,1-dioxido-2,3-dihydrobenzo[b]thiophen-5-yl)oxy)-5-fluorobenzonitrile]	–	190	59	–	–
O=S1(=O)c2ccc(OCc3ccccc3)c(C(F)F)c2C(O)C1(F)F (centres unmarked) [Compound 175, 5-Benzyloxy-4-(difluoromethyl)-2,2-difluoro-1,1-dioxo-3H-benzothiophen-3-ol]	–	510	565	–	–
N#CN=S1(=O)c2ccc(Oc3cc(F)cc(F)c3)c(Cl)c2[C@@H](O)C1(F)F (stereo partly drawn) [Compound 176, N-((3R)-4-Chloro-5-(3,5-difluorophenoxy)-2,2-difluoro-3-hydroxy-1-oxido-2,3-dihydro-1λ^4-benzo[b]thiophen-1-ylidene)cyanamide]	–	2160	174	–	–
N#Cc1c(Oc2cc(F)cc(F)c2)ccc2c1[C@@H](O)CS2(=O)=O [Compound 178, (R)-5-(3,5-difluorophenoxy)-3-hydroxy-2,3-dihydrobenzo[b]thiophene-4-carbonitrile 1,1-dioxide]	–	366	120	–	–
N#Cc1cc(F)cc(Oc2ccc3c(c2C#N)[C@@H](O)CS3(=O)=O)c1 [Compound 180, (R)-5-(3-Cyano-5-fluorophenoxy)-3-hydroxy-2,3-dihydrobenzo[b]thiophene-4-carbonitrile 1,1-dioxide]	–	400	12900	–	–
N#Cc1c(Oc2cccc(F)c2)ccc2c1[C@@H](O)CS2(=O)=O [Compound 186, (R)-5-(3-fluorophenoxy)-3-hydroxy-2,3-dihydrobenzo[b]thiophene-4-carbonitrile 1,1-dioxide]	–	492	746	–	–
O=S1(=O)c2ccc(Oc3cncc(F)c3)c(Br)c2[C@@H](O)C1(F)F [Compound 187, (R)-4-bromo-2,2-difluoro-5-((5-fluoropyridin-3-yl)oxy)-3-hydroxy-2,3-dihydrobenzo[b]thiophene 1,1-dioxide]	–	126	305	–	–
COc1cc(F)cc(Oc2ccc3c(c2Br)[C@@H](O)C(F)(F)S3(=O)=O)c1 [Compound 190, (R)-4-Bromo-2,2-difluoro-5-(3-fluoro-5-methoxyphenoxy)-3-hydroxy-2,3-dihydrobenzo[b]thiophene 1,1-dioxide]	–	413	57	–	–
COc1cc(F)cc(Oc2ccc3c(c2C#N)[C@@H](O)C(F)(F)S3(=O)=O)c1 [Compound 191, (R)-2,2-difluoro-5-(3-fluoro-5-methoxyphenoxy)-3-hydroxy-2,3-dihydrobenzo[b]thiophene-4-carbonitrile 1,1-dioxide]	–	15000	66	–	–
Cc1cncc(Oc2ccc3c(c2Br)[C@@H](O)C(F)(F)S3(=O)=O)c1 [Compound 192, (R)-4-bromo-2,2-difluoro-3-hydroxy-5-((5-methylpyridin-3-yl)oxy)-2,3-dihydrobenzo[b]thiophene 1,1-dioxide]	–	1420	2900	–	–
N#Cc1cccc(Oc2ccc3c(c2Br)[C@@H](O)C(F)(F)S3(=O)=O)c1 [Compound 194, (R)-3-((4-bromo-2,2-difluoro-3-hydroxy-1,1-dioxido-2,3-dihydrobenzo[b]thiophen-5-yl)oxy)benzonitrile]	–	32	17	–	–
O=S1(=O)c2ccc(Oc3cncc(Cl)c3)c(Cl)c2[C@@H](O)C1(F)F [Compound 196, (R)-4-Chloro-5-((5-chloropyridin-3-yl)oxy)-2,2-difluoro-3-hydroxy-2,3-dihydrobenzo[b]thiophene 1,1-dioxide]	–	425	384	–	–
COc1c(Oc2cc(F)cc(C#N)c2)ccc2c1C(O)C(F)(F)S2(=O)=O (centres unmarked) [Compound 197, 3-((2,2-Difluoro-3-hydroxy-4-methoxy-1,1-dioxido-2,3-dihydrobenzo[b]thiophen-5-yl)oxy)-5-fluorobenzonitrile]	–	1100	940	–	–
N#Cc1cc(F)cc(Oc2ccc3c(c2F)C(O)C(F)(F)S3(=O)=O)c1 (centres unmarked) [Compound 198, 3-Fluoro-5-((2,2,4-trifluoro-3-hydroxy-1,1-dioxido-2,3-dihydrobenzo[b]thiophen-5-yl)oxy)benzonitrile]	–	882	975	–	–
N#Cc1cccc(Oc2ccc3c(c2C(F)F)[C@@H](O)C(F)(F)S3(=O)=O)c1 [Compound 199, (R)-3-((4-(difluoromethyl)-2,2-difluoro-3-hydroxy-1,1-dioxido-2,3-dihydrobenzo[b]thiophen-5-yl)oxy)benzonitrile]	–	33	34	–	–
O=S1(=O)c2ccc(Oc3ccc(F)c(F)c3)c(C(F)F)c2[C@@H](O)C1(F)F [Compound 200, (R)-4-(Difluoromethyl)-5-(3,4-difluorophenoxy)-2,2-difluoro-3-hydroxy-2,3-dihydrobenzo[b]thiophene 1,1-dioxide]	–	79	24	–	–
N#Cc1cc(Oc2ccc3c(c2C(F)F)[C@@H](O)C(F)(F)S3(=O)=O)ccc1F [Compound 201, (R)-5-((4-(Difluoromethyl)-2,2-difluoro-3-hydroxy-1,1-dioxido-2,3-dihydrobenzo[b]thiophen-5-yl)oxy)-2-fluorobenzonitrile]	–	308	72	–	–
O=S1(=O)c2ccc(OCC3CC3)c(C(F)F)c2[C@@H](O)C1(F)F [Compound 203, (R)-5-(Cyclopropylmethoxy)-4-(difluoromethyl)-2,2-difluoro-3-hydroxy-2,3-dihydrobenzo[b]thiophene 1,1-dioxide]	–	1160	1890	–	–
O=S1(=O)c2ccc(Oc3cccc4sccc34)c(C(F)F)c2C(O)C1(F)F (centres unmarked) [Compound 204, 5-(Benzo[b]thiophen-4-yloxy)-4-(difluoromethyl)-2,2-difluoro-3-hydroxy-2,3-dihydrobenzo[b]thiophene 1,1-dioxide]	–	455	11	–	–
O=S1(=O)c2ccc(Oc3cccc4cn[nH]c34)c(C(F)F)c2C(O)C1(F)F (centres unmarked) [Compound 205, 5-((1H-Indazol-7-yl)oxy)-4-(difluoromethyl)-2,2-difluoro-3-hydroxy-2,3-dihydrobenzo[b]thiophene 1,1-dioxide]	–	6900	1760	–	–
CC1(O)c2c(ccc(Oc3cc(F)cc(C#N)c3)c2C(F)F)S(=O)(=O)C1(F)F (centres unmarked) [Compound 206, 3-((4-(Difluoromethyl)-2,2-difluoro-3-hydroxy-3-methyl-1,1-dioxido-2,3-dihydrobenzo[b]thiophen-5-yl)oxy)-5-fluorobenzonitrile]	–	771	200	–	–
N#Cc1c(Oc2cc(F)cc(F)c2)ccc2c1C(O)C(F)(F)S2(=O)=O (centres unmarked) [Compound 207, 5-(3,5-Difluorophenoxy)-2,2-difluoro-3-hydroxy-2,3-dihydrobenzo[b]thiophene-4-carbonitrile 1,1-dioxide]	–	427	46	–	–
CC1(O)c2c(ccc(Oc3cc(F)cc(F)c3)c2Br)S(=O)(=O)C1(F)F (centres unmarked) [Compound 208, 4-Bromo-5-(3,5-difluorophenoxy)-2,2-difluoro-3-hydroxy-3-methyl-2,3-dihydrobenzo[b]thiophene 1,1-dioxide]	–	296	83	–	–
